{"source": "patent US20090209620A1", "about": "“Direct Reversal Of The Suppressive Function Of CD4+Regulatory T Cells Via Toll-Like Receptor 8 Signaling” (priority 2005, published 2009)", "key": {"[1]": {"test_system": "CD4+ Treg cells (Treg102, Treg164)", "test": "Proliferation assay with dendritic cells: Treg suppression of naive CD4+ T cell proliferation ([3H]thymidine)", "format": "cell-based, human", "conditions": "with DCs and soluble anti-CD3; CpG-A 3 ug/ml", "source_text": "Establishing Treg cell lines and purifying natural CD4^+ CD25^+ Treg cells CD4^+ Treg clones were established from CD4^+ tumor-infiltrating lymphocytes (TIL102 and TIL164) and maintained in RPMI 1640 medium containing 10% human AB serum and recombinant IL-2 (300 IU/ml) using methods well known in the art (See, e.g., H. Y. Wang et al., Immunity 20, 107-118 (2004)). Treg clones derived from TIL102 or TIL164 cells were pooled and designated Treg102 or Treg164. Naturally occurring CD4^+ CD25^+ Treg cells were obtained by sorting CD4^+ T cell populations from fresh PBMCs after staining with anti-CD4 and anti-CD25 antibodies. To obtain optimal expansion, the OKT3 expansion method was performed using methods well known in the art (See, e.g., H. Y. Wang et al., Immunity 20, 107-118 (2004)). T cell clones were maintained at a low IL-2 concentration (300 IU/ml). Melanoma cell lines and EBV-transformed B-cell lines used in this study were cultured in RPMI 1640 medium containing 10% FCS. Human embryonic kidney (HEK) 293 and Epstein-Barr virus (EBV)-transformed B cell lines were maintained in RPMI 1640 with 10% fetal calf serum (FCS).\nA. Proliferation assay with Dendritic Cells (DCs): Näive CD4^+ T cells were purified from PBMCs using microbeads (Miltenvi Biotec). DCs were generated from PBMC-derived monocytes in the presence of IL-4 (500 ng/ml) and GM-CSF (800 ng/ml) for 7 days. 1×105 näive CD4^+ T cells were cultured with regulatory T cells at different ratios (1: 0.2, 1:0.1 and 1:0.05) in 200 ul of medium containing 2×104 of DCs and anti-CD3 antibody (100 ng/ml) plus one of the following TLR ligands or cytokines: CpG-A (3 ug/ml), CpG-B (3 ug/ml), LPS (100 ng/ml), TNF.-α (20 ng/ml), IFN-α (100 ng/ml), or IL-6 (100 ng/ml). After 56 h of culture, [3H]thymidine was added at a final concentration of 1 uCi/well, followed by an additional 16 h. of culture. The incorporation of [^3H]thymidine was measured with a liquid scintillation counter, using methods well known in the art (See, e.g., M. K. Levings et al., J. Exp. Med. 196, 1335-46 (2002)). All experiments were performed in triplicate.\nTwo CD4^+ Treg cell lines, designated Treg102 and Treg164, were generated with a panel of Treg cell clones derived from TIL102 and TIL164 cells. […] A functional proliferation assay was employed to examine whether CpG (a TLR9 ligand), LPS (a TLR4 ligand) or the cytokines IL-6 or IFN-α could regulate the suppressive activity of antigen specific human CD4^+ Treg cells in the presence of DCs. […]"}, "CD4+ Treg cells": {"test_system": "CD4+ Treg cells", "test": "Pretreatment of Treg cells, then proliferation assay with naive CD4+ T cells (without DCs)", "format": "cell-based, human", "conditions": "Treg cells pretreated 3 days, washed, then mixed with naive CD4+ T cells", "experimental": "C. Pretreatment of Treg cells: 1×10^6 Treg cells were cultured in medium containing CpG-A (3 ug/ml), CpG-B (3 ug/ml), LPS (100 ng/ml), TNF.-α (20 ng/ml), IFN-α (100 ng/ml) or IL-6 (100 ng/ml) for 3 days. After three washes, the pretreated Treg cells were cultured with näive CD4^+ T cells in anti-CD3 mAb-coated plates (without DCs) to determine their suppressive function. After 56 h of culture, [3H]thymidine was added at a final concentration of 1 uCi/well, and cultured for an additional 16 h. The incorporation of [^3H]thymidine was measured with a liquid scintillation counter.\nTo exclude the possibility that the purified naive CD4^+ T cells might have been contaminated with a small number of monocytes or DCs, cultured CD4^+ Treg cells (100% purity) were pretreated with CpG-A (SEQ ID NO: 1) for 3 days. After three washes, the pretreated CD4^+ Treg cells were mixed with naive CD4^+ T cells in anti-CD3 antibody-coated plates to evaluate their ability to suppress the proliferation of naive CD4^+ T cells.\nTo determine whether the CpG motif in CpG A confers the ability to reverse the suppressive function of CD4^+ Treg cells, CD4^+ Treg cell lines were pretreated for 3 days with CpG-A (SEQ ID NO: 1), non-CpG-A (CG changed to GC in CpG-A; SEQ ID NO: 3), CpG B (SEQ ID NO: 2) or non-CpG-B (CG changed to GC in CpG-B; SEQ ID NO: 4), and used them in proliferation assays following extensive washes.\nTreg cells were pretreated with Poly-G2 (SEQ ID NO: 15) in different concentrations of chloroquine to examine whether acidification is required for the function of guanosine containing oligonucleotides. After extensive washes, the pretreated Treg cells were used for functional assays."}}, "note": "Entries after “also recorded” stand apart in the source; their conditions may differ.", "data": [{"substance": "G* GGGGACGATCGTCG* G*G*G*G*G [CpG-A]", "values": [{"measurement": "proliferation of naive CD4+ T cells restored, % of normal levels", "setting": "[1]", "value": "50-80%"}, {"measurement": "reversal of suppressive function of CD4+ Treg cells after pretreatment", "setting": "CD4+ Treg cells", "value": "reverses their suppressive function; also recorded: reversed the suppressive effect; also recorded: reversed the suppressive activities of CD4^+ Treg cells equally well"}]}]}
